From patent US20220323406A1, “METHODS AND COMPOSITIONS FOR DIFFERENTIATING STEM CELLS” (Massachusetts Institute of Technology, priority 2019, published 2022)

Legend:
[1] = tested on: ENR+CD organoids (ISC to Paneth cell differentiation); assay: Secondary (validation) screen: LYZ.S CCh-stimulated lysozyme secretion, 2.5-D 384-well ENR+CD organoids; type: cell-based, mouse; details: 6-day ENR+CD, vs ENR+CD+DMSO
Method: (§1) Drugs were tested at a narrowed dose range around each treatment's identified optimal dose from the primary screen (4× below, 2× above and below).
(§2) High-throughput screening.
(§3) Secondary lysozyme secretion assay screen. Confirmatory secondary screening with primary hits was performed using the above 384-well plate method. The screen was conducted with 4-plate replicates with a base media of ENR+CD. Media was supplemented with compound at day 0 and day 3 (n=8 well replicates per dose) at four different doses: two-fold above, two-fold below, and four-fold below the optimal final dose for each respective treatment. Additionally, each plate carried a large number of ENR+DMSO or ENR+CD+DMSO (vehicle) control wells (n=100 for ATP, and n=25 for LYZ.NS and LYZ.S) for robust normalization. ATP, non-stimulated lysozyme activity and CCh-stimulated lysozyme activity was again measured and the collected data was again processed in a custom R-script, per primary screen with slight modification. Values were log10 transformed, and a plate-wise FC was calculated for each well based on the median value of ENR+CD+DMSO (vehicle) control wells to normalize plate to plate variability.

ENR+CD organoids [2] = assay: Secondary (validation) screen: ATP (CTG) assay, 2.5-D 384-well ENR+CD organoids; type: cell-based, mouse; details: 6-day ENR+CD, vs ENR+CD+DMSO
Method: as §1, §2, §3

[3] = tested on: ENR+CD organoids (ISC to Paneth cell differentiation); assay: Primary screen: basal (non-stimulated) lysozyme secretion LYZ.NS, 2.5-D 384-well ENR+CD organoid differentiation; type: cell-based, mouse; details: primary screen; for Z.LYZ.NS: standard z score
Excerpt: as §2

[4] = tested on: ENR+CD organoids (ISC to Paneth cell differentiation); assay: Secondary (validation) screen: LYZ.NS basal lysozyme secretion, 2.5-D 384-well ENR+CD organoids; type: cell-based, mouse; details: for Dose.FC.LYZ.NS: 6-day ENR+CD, vs ENR+CD+DMSO
Method: as §1, §2, §3

ENR+CD organoids [5] = assay: Primary screen: ATP (CellTiter-Glo 3D, CTG) cell number/viability, 2.5-D 384-well ENR+CD organoids; details: primary screen;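 also: compounds given at plating and again on day 3 over a 6-day differentiation from ENR+CV stem-cell-enriched precursors, ATP measured on day 6, plate median as control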
[6] = tested on: ENR+CD organoids (ISC to Paneth cell differentiation); assay: Primary screen: CCh-stimulated lysozyme secretion LYZ.S, 2.5-D 384-well ENR+CD organoid differentiation; type: cell-based, mouse; details: primary screen
Excerpt: as §2

[7] = dose 0.08 uM, FC relative to plate median
[8] = dose 0.40 uM, FC relative to plate median
[9] = dose 2.00 uM, FC relative to plate median
[10] = dose 10.00 uM, FC relative to plate median
[11] = dose 0.08 uM, FC vs plate median
[12] = dose 0.40 uM, FC vs plate median
[13] = dose 2.00 uM, FC vs plate median
[14] = dose 10.00 uM, FC vs plate median

For `N#CC[C@H](C1CCCC1)n1cc(-c2ncnc3[nH]ccc23)cn1` [Ruxolitinib (INCB018424), Ruxolitinib, reference compound], the Dose.FC.LYZ.S ([1]; 2.50 uM) was −0.182 log2 fold change, the Dose.FC.LYZ.S ([1]; 5.00 uM) was −0.217 log2 fold change and the Dose.FC.LYZ.S ([1]; 10.00 uM) was −0.168 log2 fold change. For the same molecule, the Dose.FC.LYZ.S ([1]; 20.00 uM) was 0.027 log2 fold change, the Dose.FC.CTG (ENR+CD organoids [2]; 2.50 uM) was −0.014 log2 fold change and the Dose.FC.CTG (ENR+CD organoids [2]; 5.00 uM) was −0.224 log2 fold change. The Dose.FC.CTG (ENR+CD organoids [2]; 10.00 uM) was −0.153 log2 fold change, the Dose.FC.CTG (ENR+CD organoids [2]; 20.00 uM) was 0.166 log2 fold change and the Dose.FC.LYZ.NS [3, 7] was 0.122 log2 fold change. The Z.LYZ.NS ([3]; dose 0.08 uM) was 1.066, the Dose.FC.LYZ.NS [3, 8] was 0.070 log2 fold change and the Z.LYZ.NS ([3]; dose 0.40 uM) was 0.611. It also gave a Dose.FC.LYZ.NS [3, 9] of 0.110 log2 fold change, a Z.LYZ.NS ([3]; dose 2.00 uM) of 0.954 and a Dose.FC.LYZ.NS [3, 10] of 0.295 log2 fold change. For the same molecule, the Z.LYZ.NS ([3]; dose 10.00 uM) was 2.569, the Dose.FC.LYZ.NS ([4]; 2.50 uM) was −0.157 log2 fold change and the Dose.FC.LYZ.NS ([4]; 5.00 uM) was −0.138 log2 fold change. For the same molecule, the Dose.FC.LYZ.NS ([4]; 10.00 uM) was −0.084 log2 fold change, the Dose.FC.LYZ.NS ([4]; 20.00 uM) was 0.065 log2 fold change and the Dose.FC.CTG (ENR+CD organoids [5]; [7]) was 0.458 log2 fold change. The Dose.FC.CTG (ENR+CD organoids [5]; [8]) was 0.363 log2 fold change, the Dose.FC.CTG (ENR+CD organoids [5]; [9]) was 0.445 log2 fold change and the Dose.FC.CTG (ENR+CD organoids [5]; [10]) was 0.477 log2 fold change. It also gave a Dose.FC.LYZ.S [6, 7] of 0.150 log2 fold change, a Dose.FC.LYZ.S [6, 8] of 0.067 log2 fold change and a Dose.FC.LYZ.S [6, 9] of 0.105 log2 fold change. It also gave a Dose.FC.LYZ.S [6, 10] of 0.317 log2 fold change.

`Cc1cn(-c2cc(NC(=O)c3ccc(C)c(Nc4nccc(-c5cccnc5)n4)c3)cc(C(F)(F)F)c2)cn1` [Nilotinib (AMN-107), Nilotinib, reference compound] showed a Dose.FC.LYZ.S ([1]; 0.10 uM) of 0.044 log2 fold change, a Dose.FC.LYZ.S ([1]; 0.20 uM) of 0.117 log2 fold change and a Dose.FC.LYZ.S ([1]; 0.40 uM) of −0.007 log2 fold change. It also gave a Dose.FC.LYZ.S ([1]; 0.80 uM) of 0.143 log2 fold change, a Dose.FC.CTG (ENR+CD organoids [2]; 0.10 uM) of 0.092 log2 fold change and a Dose.FC.CTG (ENR+CD organoids [2]; 0.20 uM) of 0.122 log2 fold change. The Dose.FC.CTG (ENR+CD organoids [2]; 0.40 uM) was 0.141 log2 fold change, the Dose.FC.CTG (ENR+CD organoids [2]; 0.80 uM) was 0.233 log2 fold change and the Z.LYZ.NS ([3]; dose 0.08 uM) was 1.703. It also gave a Z.LYZ.NS ([3]; dose 0.40 uM) of 1.412, a Z.LYZ.NS ([3]; dose 2.00 uM) of 0.742 and a Z.LYZ.NS ([3]; dose 10.00 uM) of −0.806. For the same molecule, the Dose.FC.LYZ.NS [3, 11] was 0.196 log2 fold change, the Dose.FC.LYZ.NS [3, 12] was 0.162 log2 fold change and the Dose.FC.LYZ.NS [3, 13] was 0.085 log2 fold change. It also gave a Dose.FC.LYZ.NS [3, 14] of −0.093 log2 fold change, a Dose.FC.LYZ.NS ([4]; 0.10 uM) of 0.092 log2 fold change and a Dose.FC.LYZ.NS ([4]; 0.20 uM) of 0.161 log2 fold change. The Dose.FC.LYZ.NS ([4]; 0.40 uM) was 0.101 log2 fold change, the Dose.FC.LYZ.NS ([4]; 0.80 uM) was 0.165 log2 fold change and the “validated doses in secondary screen (SSMD above cutoff in both LYZ assays)” value ([4]; LYZ.NS and LYZ.S) was “multiple validated doses”. For the same molecule, the “biological potency compared with Bosutinib” value ([4]; LYZ.NS and LYZ.S mean fold change) was “more biologically potent”, the Dose.FC.CTG (ENR+CD organoids [5]; [11]) was 0.322 log2 fold change and the Dose.FC.CTG (ENR+CD organoids [5]; [12]) was 0.348 log2 fold change. It also gave a Dose.FC.CTG (ENR+CD organoids [5]; [13]) of 0.242 log2 fold change, a Dose.FC.CTG (ENR+CD organoids [5]; [14]) of −0.012 log2 fold change and a Dose.FC.LYZ.S [6, 11] of 0.235 log2 fold change. It also gave a Dose.FC.LYZ.S [6, 12] of 0.293 log2 fold change, a Dose.FC.LYZ.S [6, 13] of 0.033 log2 fold change and a Dose.FC.LYZ.S [6, 14] of −0.197 log2 fold change.
